Like-named read-outs stand apart in the source and are kept apart here.
What was measured:
ALK = target: T1, ALK (Homo sapiens, UniProt Q9UM73); test: ALK Kinase Assay (ELISA/TRF, PLC-γ substrate); assay type: biochemical; details: read-out: ALK Potency
T1 construct: host or cells: baculovirus expression system
Outline: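 IC50 values derive from percent inhibition plotted against log10 compound concentration and fitted to a variable-slope sigmoidal equation. The underlying reaction used 30 ng/ml ALK acting on immobilized PLC-γ (10 μg/mL in TBS) at 37° C for 15 minutes, read with Eu-N1 PT66 antibody.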

JAK2 = target: T2, JAK2 (Homo sapiens, UniProt O60674); test: Recombinant Human JAK2 Kinase Assay (TRF); assay type: biochemical; details: read-out: JAK2 Potency
T2 construct: host or cells: baculovirus expression system
Outline: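 Europium-labelled PY100 antibody reported tyrosine phosphorylation of a Neutravidin-captured biotinyl 15-mer peptide by JAK2 (baculovirus-expressed, 15 ng/ml). Conditions: 20 mM HEPES pH 7.2, 0.2 μM ATP, 1 mM MnCl2, 0.1% BSA, DMSO 2.5% final, 20 min at room temperature.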

[1] = ALK kinase inhibition, 1 μM ATP
[2] = JAK2 kinase inhibition, 0.2 μM ATP

T2 sequence (O60674 whole entry): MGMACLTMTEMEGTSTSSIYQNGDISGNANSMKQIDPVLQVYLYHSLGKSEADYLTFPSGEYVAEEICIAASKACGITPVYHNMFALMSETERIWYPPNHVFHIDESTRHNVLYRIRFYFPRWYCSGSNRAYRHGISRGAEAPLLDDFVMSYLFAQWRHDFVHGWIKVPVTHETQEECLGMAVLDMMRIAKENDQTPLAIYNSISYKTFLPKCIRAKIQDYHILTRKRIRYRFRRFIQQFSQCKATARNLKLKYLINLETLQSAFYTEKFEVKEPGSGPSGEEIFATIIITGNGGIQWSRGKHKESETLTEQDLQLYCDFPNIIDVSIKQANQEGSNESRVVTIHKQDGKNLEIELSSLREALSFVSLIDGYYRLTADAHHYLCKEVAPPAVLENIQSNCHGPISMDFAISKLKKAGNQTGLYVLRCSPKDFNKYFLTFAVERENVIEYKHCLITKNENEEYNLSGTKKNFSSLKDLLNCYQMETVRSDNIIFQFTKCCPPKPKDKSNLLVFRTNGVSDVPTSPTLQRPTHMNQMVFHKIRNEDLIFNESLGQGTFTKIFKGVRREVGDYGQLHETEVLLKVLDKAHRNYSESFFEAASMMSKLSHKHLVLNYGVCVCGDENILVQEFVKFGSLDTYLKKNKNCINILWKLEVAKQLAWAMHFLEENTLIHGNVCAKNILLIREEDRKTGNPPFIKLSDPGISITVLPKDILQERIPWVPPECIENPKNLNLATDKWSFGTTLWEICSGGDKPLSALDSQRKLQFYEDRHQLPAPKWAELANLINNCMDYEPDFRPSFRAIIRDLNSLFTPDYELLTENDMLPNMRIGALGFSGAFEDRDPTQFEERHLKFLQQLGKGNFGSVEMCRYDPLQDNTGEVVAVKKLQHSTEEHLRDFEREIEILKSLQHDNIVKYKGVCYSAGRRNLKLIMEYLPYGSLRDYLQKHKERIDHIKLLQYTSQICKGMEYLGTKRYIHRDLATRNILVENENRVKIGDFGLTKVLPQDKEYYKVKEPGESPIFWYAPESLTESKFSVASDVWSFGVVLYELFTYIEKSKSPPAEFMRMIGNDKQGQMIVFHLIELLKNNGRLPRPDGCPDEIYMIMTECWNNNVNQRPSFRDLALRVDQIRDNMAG
T1 sequence (Q9UM73 19-1620): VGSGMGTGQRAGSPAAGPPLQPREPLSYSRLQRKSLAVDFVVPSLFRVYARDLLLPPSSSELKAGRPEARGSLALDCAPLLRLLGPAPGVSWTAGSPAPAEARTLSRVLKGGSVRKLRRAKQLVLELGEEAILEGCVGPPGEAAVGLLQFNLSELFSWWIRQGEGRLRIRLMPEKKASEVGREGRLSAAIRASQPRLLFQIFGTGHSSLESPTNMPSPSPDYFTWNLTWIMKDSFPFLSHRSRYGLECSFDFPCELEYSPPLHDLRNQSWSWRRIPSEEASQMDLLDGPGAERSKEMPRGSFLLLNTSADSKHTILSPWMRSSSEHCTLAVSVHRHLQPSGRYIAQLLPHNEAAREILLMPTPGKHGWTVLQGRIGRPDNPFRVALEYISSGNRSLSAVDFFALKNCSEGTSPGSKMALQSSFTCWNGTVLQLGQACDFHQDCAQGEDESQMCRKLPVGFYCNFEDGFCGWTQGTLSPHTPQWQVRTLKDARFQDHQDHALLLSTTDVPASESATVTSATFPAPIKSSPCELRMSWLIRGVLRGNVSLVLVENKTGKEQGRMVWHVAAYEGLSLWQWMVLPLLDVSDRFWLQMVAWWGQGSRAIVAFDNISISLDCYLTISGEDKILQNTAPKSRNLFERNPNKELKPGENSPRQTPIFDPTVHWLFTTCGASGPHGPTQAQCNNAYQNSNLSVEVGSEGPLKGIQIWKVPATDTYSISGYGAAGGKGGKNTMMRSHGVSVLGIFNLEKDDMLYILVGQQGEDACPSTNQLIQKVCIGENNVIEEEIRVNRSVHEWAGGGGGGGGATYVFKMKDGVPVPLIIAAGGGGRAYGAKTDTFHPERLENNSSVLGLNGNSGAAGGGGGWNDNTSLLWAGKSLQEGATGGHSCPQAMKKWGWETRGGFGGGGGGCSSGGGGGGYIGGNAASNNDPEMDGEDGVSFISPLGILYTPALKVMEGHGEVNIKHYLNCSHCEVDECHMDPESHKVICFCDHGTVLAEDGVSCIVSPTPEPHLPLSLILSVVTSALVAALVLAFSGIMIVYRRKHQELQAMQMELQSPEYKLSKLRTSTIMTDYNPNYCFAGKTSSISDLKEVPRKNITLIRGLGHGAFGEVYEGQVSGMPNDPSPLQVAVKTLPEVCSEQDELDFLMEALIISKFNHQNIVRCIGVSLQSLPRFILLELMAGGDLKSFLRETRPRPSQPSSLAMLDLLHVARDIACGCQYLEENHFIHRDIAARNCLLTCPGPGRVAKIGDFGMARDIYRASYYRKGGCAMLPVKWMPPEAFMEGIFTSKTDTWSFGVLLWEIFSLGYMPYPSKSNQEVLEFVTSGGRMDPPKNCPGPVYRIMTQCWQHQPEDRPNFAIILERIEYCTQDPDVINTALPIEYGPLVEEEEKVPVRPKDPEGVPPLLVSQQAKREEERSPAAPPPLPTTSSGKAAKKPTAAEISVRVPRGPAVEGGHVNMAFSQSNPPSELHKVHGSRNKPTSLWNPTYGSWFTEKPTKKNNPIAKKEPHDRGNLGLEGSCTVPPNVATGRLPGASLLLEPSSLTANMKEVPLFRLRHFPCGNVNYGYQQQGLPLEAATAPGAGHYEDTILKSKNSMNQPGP

| SMILES | IC50 (ALK; ALK Kinase Inhibition) | IC50 (JAK2; JAK2 Kinase Inhibition) | IC50 (ALK; [1]) | IC50 (JAK2; [2]) |
| --- | --- | --- | --- | --- |
| COc1ccccc1-c1ccc2cnc(Nc3cccc(C(N)=O)c3)nn12 [Example 164, 3-[7-(2-Methoxy-phenyl)-pyrrolo[2,1-f][1,2,4]triazin-2-ylamino]-benzamide] | 100 to 1000 nM | < 100 nM | – | – |
| COc1cc(C2CCN(C(=O)C3CCN3)CC2)ccc1Nc1ncc2ccc(-c3ccccc3OC)n2n1 (racemic) [Example 862, (±)-Azetidin-2-yl-(4-{3-methoxy-4-[7-(2-methoxy-phenyl)-pyrrolo[2,1-f][1,2,4]triazin-2-ylamino]-phenyl}-piperidin-1-yl)-methanone] | – | – | < 100 nM | 100 to 1000 nM |
| COc1cc(C2CCN(CCO)CC2)ccc1Nc1ncc2ccc(-c3ccccc3N(C)S(C)(=O)=O)n2n1 [Example 793, N-[2-(2-{4-[1-(2-Hydroxy-ethyl)-piperidin-4-yl]-2-methoxy-henylamino}-pyrrolo[2,1-f][1,2,4]triazin-7-yl)-phenyl]-N-methyl-methanesulfonamide] | – | – | < 100 nM | 100 to 1000 nM |
| CC(=O)Nc1cc(Nc2ncc3ccc(-c4cccc(S(=O)(=O)NC(C)(C)C)c4)n3n2)ccc1C(C)(C)C [Example 1387, N-{2-tert-Butyl-5-[7-(3-tert-butylsulfamoyl-phenyl)-pyrrolo[2,1-f][1,2,4]triazin-2-ylamino]-phenyl}-acetamide] | 100 to 1000 nM | < 100 nM | – | – |
| COc1cc(C2(C#N)CCC(O)CC2)ccc1Nc1ncc2ccc(-c3ccccc3N(C)S(C)(=O)=O)n2n1 (centres unmarked) [Example 1253, N-(2-{2-[4-(1-Cyano-4-hydroxy-cyclohexyl)-2-methoxy-phenylamino]-pyrrolo[2,1-f][1,2,4]triazin-7-yl}-phenyl)-N-methyl-methanesulfonamide] | – | – | < 100 nM | 100 to 1000 nM |
| CC(=O)Nc1cc(Nc2ncc3ccc(-c4cccnc4)n3n2)ccc1C(C)C [Example 304, N-[2-Isopropyl-5-(7-pyridin-3-yl-pyrrolo[2,1-f][1,2,4]triazin-2-ylamino)-phenyl]-acetamide] | 1000 to 10000 nM | < 100 nM | – | – |
| COCC(C)Oc1ncc2ccc(-c3ccc(S(C)(=O)=O)cc3)n2n1 (centres unmarked) [Example 113, 7-(4-Methanesulfonyl-phenyl)-2-(2-methoxy-1-methyl-ethoxy)-pyrrolo[2,1-f][1,2,4]triazine] | > 10000 nM | 1000 to 10000 nM | – | – |
| COc1cc(N2CCC[C@@H](CN3CCN(C)CC3)C2)ccc1Nc1ncc2ccc(-c3ccccc3OC)n2n1 [Example 470, {2-Methoxy-4-[(S)-3-(4-methyl-piperazin-1-ylmethyl)-piperidin-1-yl]-phenyl}-[7-(2-methoxy-phenyl)-pyrrolo[2,1-f][1,2,4]triazin-2-yl]-amine] | – | – | < 100 nM | 100 to 1000 nM |
| CN1CCCC1COc1cc(Nc2ncc3ccc(-c4ccccc4N(C)S(C)(=O)=O)n3n2)ccc1Cl (centres unmarked) [Example 1010, N-(2-{2-[4-Chloro-3-(1-methyl-pyrrolidin-2-ylmethoxy)-phenylamino]-pyrrolo[2,1-f][1,2,4]triazin-7-yl}-phenyl)-N-methyl-methanesulfonamide] | – | – | 100 to 1000 nM | < 100 nM |
| CC(C)S(=O)(=O)c1cccc(-c2ccc3cnc(Nc4ccc(Cl)c(OC[C@@H]5CCCN5)c4)nn23)c1 [Example 1015, [4-Chloro-3-((S)-1-pyrrolidin-2-ylmethoxy)-phenyl]-{7-[3-(propane-2-sulfonyl)-phenyl]-pyrrolo[2,1-f][1,2,4]triazin-2-yl}-amine] | – | – | 100 to 1000 nM | < 100 nM |
| COc1cc(C2CCN(CC(=O)N(C)C)CC2)ccc1Nc1ncc2ccc(-c3ccccc3N(C)S(C)(=O)=O)n2n1 [Example 810, 2-[4-(4-{7-[2-(Methanesulfonyl-methyl-amino)-phenyl]-pyrrolo[2,1-f][1,2,4]triazin-2-ylamino}-3-methoxy-phenyl)-piperidin-1-yl]-N,N-dimethyl-acetamide] | – | – | < 100 nM | 100 to 1000 nM |
| CS(=O)(=O)c1ccc(-c2ccc3cnc(Nc4ccc(C5(C#N)CCN(CC(N)=O)CC5)cc4)nn23)cc1 [Example 1547, 2-(4-Cyano-4-{4-[7-(4-methanesulfonyl-phenyl)-pyrrolo[2,1-f][1,2,4]triazin-2-ylamino]-phenyl}-piperidin-1-yl)-acetamide] | 1000 to 10000 nM | < 100 nM | – | – |

Other lines, results leading:

| IC50 (ALK; ALK Kinase Inhibition) | IC50 (JAK2; JAK2 Kinase Inhibition) | IC50 (ALK; [1]) | IC50 (JAK2; [2]) | SMILES |
| --- | --- | --- | --- | --- |
| 100 to 1000 nM | < 100 nM | – | – | CN1CCN(c2ccc(Nc3ncc4ccc(-c5ccccc5[S+](C)[O-])n4n3)cc2)CC1 (centres unmarked) [Example 404, [7-(2-Methanesulfinyl-phenyl)-pyrrolo[2,1-f][1,2,4]triazin-2-yl]-[4-(4-methyl-piperazin-1-yl)-phenyl]-amine] |
| – | – | < 100 nM | < 100 nM | COc1ccc(-c2ccc3cnc(Nc4ccc(C5CCN(C)CC5)c(OC)c4)nn23)cn1 [Example 910, [3-Methoxy-4-(1-methyl-piperidin-4-yl)-phenyl]-[7-(6-methoxy-pyridin-3-yl)-pyrrolo[2,1-f][1,2,4]triazin-2-yl]-amine] |
| 1000 to 10000 nM | < 100 nM | – | – | COc1ccc(-c2ccc3cnc(Nc4ccc(C(F)(F)C(=O)N5CCN(C)CC5)cc4)nn23)cn1 [Example 1516, 2,2-Difluoro-2-{4-[7-(6-methoxy-pyridin-3-yl)-pyrrolo[2,1-f][1,2,4]triazin-2-ylamino]-phenyl}-1-(4-methyl-piperazin-1-yl)-ethanone] |
| > 10000 nM | < 100 nM | – | – | Clc1cccc(-c2ccc3cnc(Nc4ccc5c(c4)OCO5)nn23)c1 [Example 150, 1,3-Benzodioxol-5-yl-[7-(3-chloro-phenyl)-pyrrolo[2,1-f][1,2,4]triazin-2-yl]-amine] |
| – | – | 100 to 1000 nM | < 100 nM | CN(c1ccccc1-c1ccc2cnc(Nc3ccc4c(cnn4CCN4CCOCC4)c3)nn12)S(C)(=O)=O [Example 1333, N-Methyl-N-(2-{2-[1-(2-morpholin-4-yl-ethyl)-1H-indazol-5-ylamino]-pyrrolo[2,1-f][1,2,4]triazin-7-yl}-phenyl)-methanesulfonamide] |
| 1000 to 10000 nM | < 100 nM | – | – | CC(C)(C)NS(=O)(=O)c1cccc(-c2ccc3cnc(Nc4ccc(Cl)cc4)nn23)c1 [Example 1400, N-tert-Butyl-3-[2-(4-chloro-phenylamino)-pyrrolo[2,1-f][1,2,4]triazin-7-yl]-benzenesulfonamide] |
| > 10000 nM | > 10000 nM | – | – | Oc1ccc(-c2ccc3cnc(Nc4cccc(N5CCOCC5)c4)nn23)cn1 [Example 332, 5-[2-(3-Morpholin-4-yl-phenylamino)-pyrrolo[2,1-f][1,2,4]triazin-7-yl]-pyridin-2-ol] |
| – | – | < 100 nM | 1000 to 10000 nM | COc1cc(CN2CCOCC2)ccc1Nc1ncc2ccc(-c3ccccc3N(C)S(C)(=O)=O)n2n1 [Example 1221, N-{2-[2-(2-Methoxy-4-morpholin-4-ylmethyl-phenylamino)-pyrrolo[2,1-f][1,2,4]triazin-7-yl]-phenyl}-N-methyl-methanesulfonamide] |
| 100 to 1000 nM | < 100 nM | – | – | COc1ccc(-c2ccc3cnc(Nc4ccc(C5CN(C)CCN5C)cc4)nn23)cn1 (centres unmarked) [Example 1530, [4-(1,4-Dimethyl-piperazin-2-yl)-phenyl]-[7-(6-methoxy-pyridin-3-yl)-pyrrolo[2,1-f][1,2,4]triazin-2-yl]-amine] |
| 1000 to 10000 nM | < 100 nM | – | – | c1cc(N2CCOCC2)ccc1Nc1ncc2ccc(-c3ccc4c(c3)OCCO4)n2n1 [Example 5, [7-(2,3-Dihydro-benzo[1,4]dioxin-6-yl)-pyrrolo[2,1-f][1,2,4]triazin-2-yl]-(4-morpholin-4-yl-phenyl)-amine] |

Source: patent US8471005B2 (Cephalon, Inc., priority 2008, dated 2013)
